Experiments:
[1] = test system: cellules endothéliales confluentes de capillaires bovins; experiment: Prediction of blood-brain barrier passage (permeability across endothelial cell layer on filter); type: in vitro ADME; parameters: key: élevé; intermédiaire; faible; settings: 20 µM; LC-MS-MS in lower compartment after 10, 20, 30, 40 et 60 minutes; result as class
Procedure: Les substances sont incubées à 20 µM dans le compartiment supérieur d'une double cuve séparé du compartiment inférieur soit par un filtre de polycarbonate seul, soit par le même filtre recouvert de cellules endothéliales confluentes de capillaires bovins. L'évaluation de la cinétique de perméabilité est réalisée par quantification LC-MS-MS de la substance inchangée dans le compartiment inférieur après 10, 20, 30, 40 et 60 minutes. Les dérivés testés présentent un passage généralement élevé de la BHE favorisant la cible neurologique. Les résultats sont rendus sous forme de classes : élevé, intermédiaire, faible. Ainsi, l'exemple 17 présente un passage élevé de la BHE.

[2] = test system: protéine tyrosine hydroxylase (TH); experiment: Induction of tyrosine hydroxylase in the locus coeruleus of mice (immunodetection and image analysis of brain sections); type: in vivo, souris Balb/C; settings: i.p. 20 mg/kg, single injection, 3 days after, % par rapport à la valeur moyenne du groupe témoin
Description: Il est recherché, parmi les dérivés, ceux qui sont capables d'induire une augmentation de la protéine tyrosine hydroxylase (TH) dans le cerveau de la souris Balb/C, au niveau du locus coeruleus (LC).
Les animaux utilisés sont des souris mâles de la lignée pure Balb/C (Charles River Laboratories), âgées de 7 à 8 semaines au moment du traitement.
Les souris reçoivent une injection unique par voie intrapéritonéale du composé à tester, dissous dans une solution d'HCl 0,04 M (contrôle correspondant : HCl […]) si le composé est suffisamment soluble, ou dans l'huile d'olive 90 % / DMSO 10 % (contrôle correspondant : huile d'olive 90 % / DMSO 10 %) pour les composés insolubles en milieu aqueux.
Trois jours après l'injection de chaque molécule, tous les animaux sont sacrifiés par décapitation. Les cerveaux extraits sont ensuite congelés dans de l'azote liquide et conservés à -80° C.
Des coupes coronales de 8 microns d'épaisseur sont pratiquées le long de l'axe postéro-antérieur du LC et fixées. Les coupes sont transférées sur membranes Immobilon-P. La TH est mesurée par immunodétection et analyse d'image.

[3] = test system: récepteurs adrénergiques alpha (de type α2); experiment: Receptor affinity, displacement of labelled specific ligand; type: binding; settings: concentration 10^-5 M
Description: (§1) L'affinité pour les récepteurs est déterminée selon les méthodes habituelles de relation entre le ligand spécifique et le récepteur, qui peut être d'origine animale ou un recombinant humain. Elle a été déterminée par la méthode du déplacement du ligand spécifique marqué par le composé étudié, et exprimée par la constante de dissociation Ki. L'affinité réceptorielle pour 28 récepteurs classiques a ainsi été étudiée. L'étude montre que l'induction de TH observée ne passe pas par une affinité vis-à-vis des récepteurs habituellement touchés par les produits psychotropes, comme les récepteurs adrénergiques alpha (de type α2), 5HT (de type 5HT2A), dopaminergiques (de type D1 et D2). Quelques dérivés montrent une affinité non négligeable pour les récepteurs sigma (σ) (ligand halopéridol) ou muscarinique (M). TABLEAU II

D1 = D1 (Homo sapiens, UniProt P21728); experiment: as above; type: binding; settings: concentration 10^-5 M
D1, sequence (P21728 whole entry): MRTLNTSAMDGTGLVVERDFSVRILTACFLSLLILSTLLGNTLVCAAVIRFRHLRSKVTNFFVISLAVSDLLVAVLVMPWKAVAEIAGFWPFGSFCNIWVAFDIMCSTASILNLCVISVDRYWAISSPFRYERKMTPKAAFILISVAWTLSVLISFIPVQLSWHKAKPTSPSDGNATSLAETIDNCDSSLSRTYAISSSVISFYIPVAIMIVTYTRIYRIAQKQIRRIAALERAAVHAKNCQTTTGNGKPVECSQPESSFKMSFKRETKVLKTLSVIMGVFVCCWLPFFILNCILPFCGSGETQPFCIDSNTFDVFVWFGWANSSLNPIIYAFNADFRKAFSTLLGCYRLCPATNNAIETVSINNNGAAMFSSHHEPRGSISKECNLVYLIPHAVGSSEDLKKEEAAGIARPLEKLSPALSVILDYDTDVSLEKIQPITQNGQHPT
Description: as §1

5HT2A = 5HT2A (Homo sapiens, UniProt P28223); experiment: as above; type: binding
5HT2A, sequence (P28223 whole entry, species assumed): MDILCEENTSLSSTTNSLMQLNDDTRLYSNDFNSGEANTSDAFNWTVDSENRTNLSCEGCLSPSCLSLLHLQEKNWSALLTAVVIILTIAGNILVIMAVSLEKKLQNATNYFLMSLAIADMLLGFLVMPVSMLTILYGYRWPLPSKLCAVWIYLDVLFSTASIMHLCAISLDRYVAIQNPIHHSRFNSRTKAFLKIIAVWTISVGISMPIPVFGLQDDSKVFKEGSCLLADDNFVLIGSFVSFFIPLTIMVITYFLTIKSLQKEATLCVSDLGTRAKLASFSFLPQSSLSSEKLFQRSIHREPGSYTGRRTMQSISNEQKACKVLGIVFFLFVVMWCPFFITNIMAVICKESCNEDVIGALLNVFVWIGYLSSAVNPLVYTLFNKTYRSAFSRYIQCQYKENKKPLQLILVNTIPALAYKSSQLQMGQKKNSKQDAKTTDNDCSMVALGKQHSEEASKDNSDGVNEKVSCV
Description: as §1

Compound | passage de la BHE [1] | quantité de TH au niveau du LC, coupe 1 ([2]; coupe 1 du LC (sens antérieur vers postérieur)) [%] | quantité de TH au niveau du LC, coupe 2 ([2]; coupe 2 du LC (sens antérieur vers postérieur)) [%] | quantité de TH au niveau du LC, coupe 3 ([2]; coupe 3 du LC (sens antérieur vers postérieur)) [%] | quantité de TH au niveau du LC, coupe 4 ([2]; coupe 4 du LC (sens antérieur vers postérieur)) [%] | quantité de TH au niveau du LC, coupe 5 ([2]; coupe 5 du LC (sens antérieur vers postérieur)) [%] | quantité de TH au niveau du LC, coupe 6 ([2]; coupe 6 du LC (sens antérieur vers postérieur)) [%] | quantité de TH au niveau du LC, coupe 7 ([2]; coupe 7 du LC (sens antérieur vers postérieur)) [%] | quantité de TH au niveau du LC, coupe 8 ([2]; coupe 8 du LC (sens antérieur vers postérieur)) [%] | % d'inhibition α2 [3] [%] | % d'inhibition D1 (D1) [%] | inhibition at 10 µM (5HT2A; read-out: % d'inhibition 5HT2A, concentration 10^-5 M) [%] | inhibition at 0.1 µM (5HT2A; read-out: % d'inhibition 5HT2A, concentration 10^-7 M) [%]
CCCN1CC[C@H]2c3ccccc3N3NC(=O)C[C@@H]1[C@@H]23 (racemic) [Exemple 17, (3aRS,6aSR,10cRS)-4-Propyl 3a,4,5,6,6a,10c-hexahydro-3H-1,4,10b-triazafluoranthén-2-one] | élevé | 73 | 72 | 56 | 38 | 34 | 36 | 13 | 3 | – | – | – | –
CN1CCC[C@@H]2C(=O)N3c4ccccc4C[C@H]3[C@@H]21 [Exemple 45, (4aS,11aS,11bR)-1-Méthyl-1,2,3,4,4a,11,11a,11b-octahydropyrido[2',3':3,4]pyrrolo[1,2-a]indol-5-one] | – | – | – | – | – | – | – | – | – | 23 | 49 | 92 | 13

Source: patent publication EP2102204B1, “NEW AMINOPYRROLO[1,2- A]INDOLE ET AMINOPYRIDAZINO[1,6-A]INDOLE DERIVATIVES, METHOD FOR PREPARING THE SAME AND PHARMACEUTICAL COMPOSITIONS CONTAINING THE SAME” (Les Laboratoires Servier, priority 2007, dated 2008)
